Laboratory results reported in patent US10472395B2, “Cyclic peptide analogs and conjugates thereof” (Sirenas LLC, priority 2015, dated 2019).
Read-outs that look alike come from different tables or passages of the source. Numbered stars: 1 amine (or outer) side, 2 acyl side, 3 side chain; on linkers, the order of the positions; unused ones are H or OH. Bridge positions count the residues as written; N and C are the ends. Square brackets hold non-standard residues; d marks the D form. Peptide text beside a SMILES is read from it. ξ: configuration not given here. X6 = C/C=C(\C)[C@@H](O[*:2])[C@@H](C)[C@H](C/C=C(\C)C(=O)[*:1])OCSC; X3 = C/C=C(\C)[C@@H](O[*:2])[C@@H](C)[C@@H](O)C/C=C(\C)C(=O)[*:1]; X10 = C/C(=C\CCCCO[*:2])C(=O)[*:1]; aIle = CC[C@@H](C)[C@H](N)C(=O)O; dNMeF = CN[C@H](Cc1ccccc1)C(=O)O; Ile(3ξ) = CCC(C)[C@H](N)C(=O)O; dHica = CC(C)C[C@@H](O)C(=O)O; dHiv = CC(C)[C@@H](O)C(=O)O; dAbu = CC[C@@H](N)C(=O)O; Abu = CC[C@H](N)C(=O)O; Aib = CC(C)(N)C(=O)O; Sar = CNCC(=O)O

Key:
[1] = test system: BT-474 human mammary gland ductal carcinoma cells; assay: Inhibitory response of test compounds against BT-474 cells (Cell Titer-Glo, 72 h); assay type: cell-based
Protocol: (§1) BT-474 human mammary gland ductal carcinoma cells were seeded in a clear polystyrene 96-well microculture plate (Corning® Costar® 96-well flat bottom plate, Cat.#3997) in a total volume of 90 μL/well. After 24 hours of incubation in a humidified incubator at 37° C. with 5% CO2 and 95% air, 10 μL of 10×, serially diluted test agents in growth medium were added to each well (10 pt dose response curve, highest concentration 10 μM of test agent). After 72 hours of culture in a humidified incubator at 37° C., in an atmosphere of 5% CO2 and 95% air, the plated cells and Cell Titer-Glo® (Promega G7571) reagents were brought to room temperature to equilibrate for 30 minutes. 100 μL of Cell Titer-Glo® reagent was added to each well. The plate was shaken for two minutes and then left to equilibrate for ten minutes. The media/Cell Titer-Glo® reagent was transferred to a white polystyrene 96-well microculture plate (Corning® Costar® 96-well flat bottom plate, Cat.#3917) before reading luminescence on a Tecan GENios microplate reader.
(§2) Percent inhibition of cell growth was calculated relative to untreated control wells. The IC50 value for the test agents was determined using Prism 6.05 by curve-fitting of the data using the following four parameter-logistic equation:
(§3) [formula] where Top is the maximal % of control absorbance, Bottom is the minimal % of control absorbance at the highest agent concentration, Y is the % of control absorbance, X is the agent concentration, IC50 is the concentration of agent that inhibits cell growth by 50% compared to the control cells, and n is the slope of the curve.

HCC1954 cells = assay: Inhibitory response of test compounds against HCC1954 cells (method analogous to BT-474); assay type: cell-based; settings: Homo sapiens
Protocol: as §1, §2, §3
Inhibitory response of test compounds against HCC1954 cells was determined using a method analogous to that used for BT-474 cells.

With `C/C=C(\C)[C@H]1OC(=O)[C@@H](C)NC(=O)[C@H](C(C)CC)NC(=O)CN(C)C(=O)[C@@H](Cc2ccccc2)N(C)C(=O)[C@H](C)NC(=O)[C@@H](CC(C)C)NC(=O)/C(C)=C/C[C@H](O)[C@@H]1C` (stereo partly drawn) [Compound 63] ([dL]A[dNMeF][Sar][Ile(3ξ)][dA]; linker N-C via X3) the IC50 ([1]; Homo sapiens) was less than 20 nM and the IC50 (HCC1954 cells) was 20 to 200 nM.

In the case of `C/C=C(\C)[C@H]1OC(=O)[C@@H](C)NC(=O)[C@H](C(C)CC)NC(=O)CN(C)C(=O)[C@@H](Cc2ccccc2)N(C)C(=O)[C@H](C)NC(=O)[C@@H](Cc2ccccc2)NC(=O)/C(C)=C/C[C@H](O)[C@@H]1C` (stereo partly drawn) [Compound 64] ([dF]A[dNMeF][Sar][Ile(3ξ)][dA]; linker N-C via X3), the IC50 ([1]; Homo sapiens) is reported as less than 20 nM and the IC50 (HCC1954 cells) is reported as 20 to 200 nM.

`C/C=C(\C)[C@H]1OC(=O)[C@@H](C)NC(=O)[C@H](C(C)CC)NC(=O)CN(C)C(=O)[C@@H](Cc2ccccc2)N(C)C(=O)[C@H](C)NC(=O)[C@@H](CC(C)C)OC(=O)/C(C)=C/C=C/[C@@H]1C` (stereo partly drawn) [Compound 69] was tested, and the IC50 ([1]; Homo sapiens) was less than 20 nM and the IC50 (HCC1954 cells) was less than 20 nM.

With `C/C=C(\C)[C@H]1OC(=O)[C@@H](C)NC(=O)[C@H]([C@H](C)CC)NC(=O)CN(C)C(=O)[C@@H](Cc2ccccc2)N(C)C(=O)[C@H](C)NC(=O)[C@@H](CC(C)C)OC(=O)/C(C)=C/C[C@H](OC(=O)N(C)CCNC)[C@@H]1C` [Compound 75] the IC50 ([1]; Homo sapiens) was less than 20 nM and the IC50 (HCC1954 cells) was less than 20 nM.

`CCC(C)[C@@H]1NC(=O)CN(C)C(=O)[C@@H](Cc2ccccc2)N(C)C(=O)[C@H](C)NC(=O)[C@@H](CC(C)C)OC(=O)/C(C)=C/CCCCOC(=O)[C@@H](CC)NC1=O` (stereo partly drawn) [Compound 77] ([dHica]A[dNMeF][Sar][Ile(3ξ)][dAbu]; linker N-C via X10) was tested, and the IC50 ([1]; Homo sapiens) was greater than 10000 nM.

Work on `CCC(C)[C@@H]1NC(=O)CN(C)C(=O)[C@@H](Cc2ccccc2)N(C)C(=O)[C@H](C)NC(=O)[C@@H](CC(C)C)OC(=O)/C(C)=C/CCCCOC(=O)[C@H](CC)NC1=O` (stereo partly drawn) [Compound 78] ([dHica]A[dNMeF][Sar][Ile(3ξ)][Abu]; linker N-C via X10) yielded an IC50 ([1]; Homo sapiens) of 200 to 10000 nM.

`CCC(C)[C@@H]1NC(=O)CN(C)C(=O)[C@@H](Cc2ccccc2)N(C)C(=O)[C@H](C)NC(=O)[C@@H](CC(C)C)OC(=O)/C(C)=C/CCCCOC(=O)CNC1=O` (stereo partly drawn) [Compound 79] ([dHica]A[dNMeF][Sar][Ile(3ξ)]G; linker N-C via X10) showed an IC50 ([1]; Homo sapiens) greater than 10000 nM.

`CCC(C)[C@@H]1NC(=O)CN(C)C(=O)[C@@H](Cc2ccccc2)N(C)C(=O)[C@H](C)NC(=O)[C@@H](C(C)C)OC(=O)/C(C)=C/CCCCOC(=O)[C@@H](CC)NC1=O` (stereo partly drawn) [Compound 80] ([dHiv]A[dNMeF][Sar][Ile(3ξ)][dAbu]; linker N-C via X10) gave an IC50 ([1]; Homo sapiens) greater than 10000 nM.

Compound `CCC(C)[C@@H]1NC(=O)CN(C)C(=O)[C@@H](Cc2ccccc2)N(C)C(=O)[C@H](C)NC(=O)[C@@H](C(C)C)OC(=O)/C(C)=C/CCCCOC(=O)C(C)(C)NC1=O` (stereo partly drawn) [Compound 81] ([dHiv]A[dNMeF][Sar][Ile(3ξ)][Aib]; linker N-C via X10) has an IC50 ([1]; Homo sapiens) of 200 to 10000 nM.

`C/C=C(\C)[C@H]1OC(=O)[C@@H](CCCCNC(=O)OC(C)(C)C)NC(=O)[C@H]([C@H](C)CC)NC(=O)CN(C)C(=O)[C@@H](Cc2ccccc2)N(C)C(=O)[C@H](C)NC(=O)[C@@H](CC(C)C)OC(=O)/C(C)=C/C[C@H](CCSC)[C@@H]1C` [Compound 82] showed an IC50 ([1]; Homo sapiens) of less than 20 nM and an IC50 (HCC1954 cells) of 20 to 200 nM.

`C/C=C(\C)[C@H]1OC(=O)[C@@H](CCCCN)NC(=O)[C@H]([C@H](C)CC)NC(=O)CN(C)C(=O)[C@@H](Cc2ccccc2)N(C)C(=O)[C@H](C)NC(=O)[C@@H](CC(C)C)NC(=O)/C(C)=C/C[C@H](OCSC)[C@@H]1C` [Compound 83] ([dL]A[dNMeF][Sar][aIle][dK]; linker N-C via X6) was tested, and the IC50 ([1]; Homo sapiens) was greater than 10000 nM and the IC50 (HCC1954 cells) was greater than 10000 nM.

`C/C=C(\C)[C@H]1OC(=O)[C@@H](CCCCN)NC(=O)[C@H](C(C)CC)NC(=O)CN(C)C(=O)[C@@H](Cc2ccccc2)N(C)C(=O)[C@H](C)NC(=O)[C@@H](CC(C)C)OC(=O)/C(C)=C/C[C@H](O)[C@@H]1C` (stereo partly drawn) [Compound 84] showed an IC50 ([1]; Homo sapiens) of 200 to 10000 nM and an IC50 (HCC1954 cells) of 200 to 10000 nM.

`C/C=C(\C)[C@H]1OC(=O)[C@@H](C)NC(=O)[C@H]([C@H](C)CC)NC(=O)CN(C)C(=O)[C@@H](Cc2ccc(Cl)cc2)N(C)C(=O)[C@H](CCCCNC(=O)c2ccc(C(C)=O)cc2)NC(=O)[C@@H](CC(C)C)OC(=O)/C(C)=C/CC[C@@H]1C` [Compound 121] gave an IC50 ([1]; Homo sapiens) of 200 to 10000 nM.

`C/C=C(\C)[C@H]1OC(=O)[C@@H](C)NC(=O)[C@H]([C@H](C)CC)NC(=O)CN(C)C(=O)[C@@H](Cc2ccccc2)N(C)C(=O)[C@H](C)NC(=O)[C@@H](CC(C)C)OC(=O)/C(C)=C/C[C@H](OC(=O)NCCCOCCOCCOCCCNC(=O)c2ccc(/C(C)=N\NC(=O)CCCCCN3C(=O)C=CC3=O)cc2)[C@@H]1C` [Compound L13] was tested, and the IC50 [1] was 20 to 200 nM.
